Experimental data: US12472193B2, “Methods and compositions for treating and preventing respiratory related diseases and conditions with xylitol-headgroup lipid analogs” (National Jewish Health, priority 2017, dated 2025)
Entries after “also recorded” stand apart in the source; their conditions may differ. Read-outs that look alike come from different tables or passages of the source.

How the values were obtained:
[1] = Protocol: 18:1 DEPX was prepared as liposomes so that 500 μg of lipid was delivered in a 50 μL volume. 6-week old female BALB/C mice were purchased from Jackson laboratories and divided into groups of 5. Each group was inoculated with 500 μg of 18:1 DEPX by intranasal inoculation. Groups of 5 mice were sacrificed and lavaged at the following time points: 0 hours, 3 hours, 6 hours, 18 hours and 24 hours. Lipids were extracted from mice BALF by Bligh-Dyer (“A rapid method of total lipid extraction and purification.,” Can. J. Biochem. Physiol., vol. 37, no. 8, pp. 911-7, August 1959), and quantified by phosphorus analysis. 150 nmol of lipid extracted from each mouse was separated by lipid class utilizing the Touchstone solvent system (refer to methods) and thin layer chromatography. 0.1% ANSA and UV light was used to visualize lipids from the thin layer chromatogram. Individual xylitol lipid bands were cut out from the silica and quantified by phosphorus analysis.
To determine how quickly 18:1 DEPX turns over in the mouse lung, female BALB/C mice that were 6-8 weeks old were inoculated with 500 μg of lipid by intranasal delivery in a 50 μL volume. Mice were sacrificed at time periods of, 0 hours, 3 hours, 6 hours, 18 hours and 24 hours following lipid delivery and bronchoalveolar lavage fluid (BALF) was collected. Lipids were extracted from BALF by the Bligh-Dyer method and total lipid extracts were quantified by phosphorus analysis (G. Rouser, et al., “Quantitative analysis of phospholipids by thin-layer chromatography and phosphorus analysis of spots.,” Lipids, vol. 1, no. 1, pp. 85-6, January 1966). To separate the various lipid classes present in BALF, thin layer chromatography on a Merck Silica 60 glass plate with a touchstone solvent system was utilized. The silica plate was scored in lanes according to number of samples, 150 nmol of total lipid was spotted onto each lane and solvent was developed for 90 minutes. The plate was air dried and sprayed with 0.1% ANSA-water then exposed to UV light to reveal migration of lipids on the plate. The spots corresponding to xylitol lipids were cut out and quantified by phosphorous analysis.
Because toxicity of the synthetic phospholipid, 18:1 DEPX, is unknown lower levels of lipid were delivered to mice to determine if the diether lipid persists in the mouse lung after 24 hours. The previous experiment was repeated with 250 μg, 150 μg and 75 μg 18:1 DEPX delivered to mice. 250 μg was used as a starting point for mice sacrificed at 0 hours following lipid delivery. Subsequently groups of mice given 250 μg, 150 μg and 75 μg of 18:1 DEPX were sacrificed 24 hours following intranasal delivery of lipid. Mouse lungs were lavaged 2 times with 1 mL PBS. Total lipids were extracted by the Bligh-Dyer method from BALF and separated on a Merck Silica 60 glass plate using a touchstone solvent system for separation of lipids by headgroup. Xylitol lipid spots were excised from the silica and quantified by phosphorus assay.

RSV = experiment: 18:1 DEPX interference with RSV infection in vivo (BALB/c mice); parameters: species or system mouse
Protocol: Six-week-old female BALB/c mice were obtained from Jackson Laboratory. Mice were anesthetized with isoflurane and through intranasal inoculation a 50 μL volume of PBS control, 18:1 DEPX lipid alone, 18:1 DEPX+RSV or RSV only was delivered to mice. Mice were infected with 1×10^7 pfu/mL RSV. 18:1 DEPX liposomes were delivered to mice at a final amount of 100 μg. For lipid antagonism, RSV and 18:1 DEPX were mixed together in PBS prior to inoculation. Five days following initial infection, mice were euthanized by asphyxiation with carbon dioxide following prescribed guidelines by the IACUC. Next, mice were dissected to expose the trachea where a small cut was made to insert a luer stub. The lungs were then lavaged with 1 mL of saline. The chest cavity was opened and the lungs perfused with PBS and then removed. The left lung was homogenized in 1 mL of serum-free DMEM, the homogenates were centrifuged at 3800 rcf for 15 minutes at 4° C. and supernatant was used for quantitative plaque assay analysis. Lower right lungs were fixed overnight in 10% buffered formalin, then dehydrated and paraffin-embedded. Lungs were then sliced and stained with Hematoxylin-Eosin (H&E) for microscopy pictures and histopathological scoring. Total cell counts were determined from BALF and cell types were assessed by cytospin. IFN-γ was quantified by ELISA from the cell-free supernatants of BALF. The upper right lung was homogenized, RNA was extracted, converted to cDNA and RSV replication was determined by quantitative PCR of the F protein.
Female BALB/C mice were obtained from Jackson Laboratories at 6 weeks of age. The experiment consisted of four groups, a PBS control, 18:1 DEPX liposomes alone, 18:1 DEPX liposomes+RSV and RSV alone. Mice were inoculated with RSV at 1×10^7 pfu/mL. 100 μg 18:1 DEPX was the dose tested for protective effects in the mouse lung. Each mouse group underwent intranasal inoculation for delivery of experimental conditions in a final volume of 50 μL. Mice were monitored daily and body weight was recorded. At the height of RSV infection on day 5, the mice were euthanized. Bronchoalveolar lavage fluid (BALF) was collected, the chest cavity was opened and the lungs removed. The left lobe of the lungs was homogenized in serum-free DMEM, centrifuged at 3800 rcf for 15 minutes at 0° C. and the supernatant collected for quantitative plaque assay described in the previous chapter. The lower right lobe of the lung was fixed overnight in 10% buffered formalin and then processed by paraffin embedding, slicing and fixing of the lung to a microscope slide and H&E staining. The upper right lobe of the lung was homogenized, RNA was extracted and converted to cDNA and then quantitative real-time PCR was used to determine RSV replication by quantification of the F protein. Cells within BALF were quantified and assessed for cell populations by cytospin. BALF supernatant was stored and subsequently used for IFNγ quantification.
On day 5 following RSV infection mice were sacrificed by carbon dioxide asphyxiation according to IACUC protocol. Mice were dissected to expose the trachea where a small cut was made for the insertion of a leur stub and the lungs were lavaged with 1 mL of saline. A 20 μL aliquot was obtained from BALF collected and cellular infiltration into the lungs was quantified using a hemocytometer. The remaining lavage fluid was centrifuged at 500×g for 5 minutes, supernatant was collected and cells were resuspended in PBS for cytospin. In studies shown in FIG. 11, mice were challenged with either saline (CNTL), or 10^7 virus (RSV), or virus plus 18:1 DEPX (18:1 DEPX+RSV), or lipid alone (18;1 DEPX). The mice received all agents in a volume of 50 μl applied intranasally. On day 6 the mice were euthanized and the lungs were lavaged with saline. The cells in the lavage were recovered by centrifugation and quantified by counting using a hemocytometer. In RSV infected mice cell numbers were ˜120×10^4. […]

[2] = 18:1 DEPX alone, 100 μg intranasal

CCCCCCCCC=CCCCCCCCCOCC(COP(=O)(O)OCC(O)C(O)C(O)CO)OCCCCCCCCC=CCCCCCCCC (mixture of isomers) [18:1 DEPX, sn-1-O-octadecenyl, sn-2-O-octadecenyl sn-3 glycerol phosphoxylitol]
xylitol lipid recovered from BALF ([1]; 75 μg intranasal, 24 hours): 10 µg | xylitol lipid recovered from BALF ([1]; 150 μg intranasal, 24 hours): 15 µg | xylitol lipid recovered from BALF ([1]; 250 μg intranasal, 0 hours): Around 40 μg | xylitol lipid recovered from BALF ([1]; 250 μg intranasal, 24 hours): around 20 μg | 18:1 DEPX detected in recovered lavage ([1]; 500 μg intranasal, 24 hours): about 20 nmol | 18:1 DEPX in 150 nmol of total BALF lipid loaded ([1]; 500 μg intranasal, time zero): approximately 42 nmol | half-life in the mouse lung ([1]; intranasal): around 24 hours | starting material recovered after 24 hours ([1]; mice): 50% | daily body weight, lipid alone vs control mice (RSV; [2]): no difference in daily body weight | number of cells in lavage, lipid alone vs control (RSV; [2]): no difference in number of cells | IFNγ in BALF compared to RSV alone (RSV; 18:1 DEPX+RSV mice): reduced; also recorded: significantly lower | cell numbers in lavage (RSV; 18:1 DEPX+RSV mice, 1 mL BALF, FIG. 11): ~20×10^4 | IFNγ in BALF (RSV; 18:1 DEPX+RSV mice, day 5): Around 1 ng/mL | cellular infiltration into the lungs (BALF) (RSV; 18:1 DEPX+RSV vs RSV alone): suppresses an overabundance of cellular infiltration; also recorded: decreased number of inflammatory cellular infiltrates; also recorded: suppresses influx of inflammatory cells; also recorded: reduced cellular infiltrates; also recorded: significantly lower amounts of cellular infiltrates | reduction of viral plaque number (RSV; 18:1 DEPX+RSV vs RSV alone): 50% | lung histopathology (RSV; 18:1 DEPX+RSV vs RSV alone, H&E): appeared less affected by the virus | reduction in RSV expression (qPCR) (RSV; first viral challenge experiment): 2.6 fold | reduction of RSV expression by a factor of (qPCR) (RSV; latter two experiments): 6.2 | viral load / RSV infection in lung compared to RSV mice (RSV; plaque assay and qPCR): reduces viral copy number; also recorded: inhibited RSV infection; also recorded: reduced viral load
